# Laboratory results reported in patent publication US6255317A, “Cholesterol biosynthesis inhibitors” (Hanwha Chemical Corporation, priority 1998, dated 2001).
# Tested on: Syrian Golden Hamster
# Assay: In vivo effect on plasma lipids and glucose in Syrian Golden Hamster
# Details: against normal diet control; 6.0 mg/kg/day
# Method: In order to investigate the effect of the compound of formula (1) of the invention, the compound was orally administered into male Syrian Golden Hamsters having weights of 90~110 g and then blood was taken from each animal. Plasma lipids, i.e., total cholesterol, LDL-cholesterol, HDL-cholesterol and triglycerides were analyzed using an automatic analyzer (Automatic analyzer model Hitachi 7150).
# Male Syrian Golden Hamsters weighing 90~110 g distributed from Samyuk Animal Laboratory, Seoul, Korea were bred under the following conditions: They were maintained under reverse light cycle (light cycle: from 6 P.M to 6 A.M; dark cycle: from 6 A.M. to 6 P.M.). The food and water were supplied at 10 A.M. The commercially available standard rodent chows were used. The hamsters were divided into 6 or 7 animals per group. The animals were fasted for 12 hours before administrating the drug. Then, dehydrocoridaline derivatives dissolved in a 0.25% methyl cellulose solution was administered orally for 14 days at the indicated time per a day. After fasting animals for 24 hours from the last administration, blood was extracted using a cardiac puncture and plasma was then isolated. Plasma lipids, i.e., total cholesterol, LDL-cholesterol, HDL-cholesterol and triglyceride values were analyzed using Automatic Analyzer (Hitachi 7150).
SMILES,"Glucose, percent change in parentheses","HDL cholesterol, percent change in parentheses [%]","LDL cholesterol, percent change in parentheses [%]","Total cholesterol, percent change in parentheses [%]"
"CC[C@H](C)C(=O)O[C@H]1C[C@@H](C)C=C2C=C[C@H](C)[C@H](CC[C@@H]3C[C@@H](O)CC(=O)O3)[C@H]21 [lovastatin, reference compound]",+1.0%,-2.6,-29.1,-22.7

# Same assay, conditions: normal diet + 6.0 mg/kg/day, oral, 14 days, hamster
row,SMILES,Glucose [mg/dL]
1,"CC[C@H](C)C(=O)O[C@H]1C[C@@H](C)C=C2C=C[C@H](C)[C@H](CC[C@@H]3C[C@@H](O)CC(=O)O3)[C@H]21 [lovastatin, reference compound]",184.6 ± 23.2

# Same assay, conditions: normal diet + 6.0 mg/kg/day, oral, 14 days, hamster plasma
SMILES,HDL cholesterol [mg/dL],LDL cholesterol [mg/dL],Total cholesterol [mg/dL],Trigly-ceride [mg/dL]
"CC[C@H](C)C(=O)O[C@H]1C[C@@H](C)C=C2C=C[C@H](C)[C@H](CC[C@@H]3C[C@@H](O)CC(=O)O3)[C@H]21 [lovastatin, reference compound]",51.4 ± 2.6,29.9 ± 1.9,97.4 ± 3.4,182.6 ± 17.0

# Target: T1, sterol 14-reductase (Rattus norvegicus, UniProt A0ACM8Q6X4)
# T1 construct: to give a microsome which was used as an enzyme source of sterol 14-reductase; from tissue
# T1 sequence (A0ACM8Q6X4 1-418): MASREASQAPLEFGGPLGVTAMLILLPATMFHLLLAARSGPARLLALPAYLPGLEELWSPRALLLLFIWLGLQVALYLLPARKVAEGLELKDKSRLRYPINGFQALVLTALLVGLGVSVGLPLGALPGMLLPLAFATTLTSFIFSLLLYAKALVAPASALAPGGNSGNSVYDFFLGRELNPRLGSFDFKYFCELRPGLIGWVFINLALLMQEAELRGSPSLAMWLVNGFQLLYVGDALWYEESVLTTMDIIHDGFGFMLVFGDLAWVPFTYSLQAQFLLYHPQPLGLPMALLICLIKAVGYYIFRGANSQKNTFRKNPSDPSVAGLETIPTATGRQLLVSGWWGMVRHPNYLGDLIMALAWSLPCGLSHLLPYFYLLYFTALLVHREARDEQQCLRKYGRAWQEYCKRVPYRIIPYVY
# Assay: Sterol 14-reductase assay with rat liver microsomes (substrate 4,4-dimethyl-5α-cholesta-7,14-dien-3β-ol, GLC)
# Format: biochemical, Sprague-Dawley rats
# Details: not given
row,SMILES,inhibition of sterol 14-reductase (in words)
1,COc1cc2c(cc1OC)-c1c(C)c3ccc(OC)c(OC)c3c[n+]1CC2,effectively inhibit

# Same assay, conditions: dissolved in DMSO; read-out: concentration of active ingredient in the assay at which 50% of inhibitory effect was observed (sterol 14-reductase)
row,SMILES,IC50 [µM]
1,COc1cc2c(cc1OC)-c1c(C)c3ccc(OC)c(OC)c3c[n+]1CC2,40000 to 50000

# Same assay, conditions: read-out: Enzyme Activity (relative in vitro activity for sterol 14-reductase, IC50 class)
row,SMILES,IC50 [µM]
1,"CCC1=C2c3cc(OC)c(OC)cc3CCN2C(C2CCCC2=O)c2c1ccc(OC)c2OC (stereo not drawn) [Compound No. 42, 8-(cyclopentanon-2-yl)-13-ethyldihydropalmatine]",≥ 100
2,"CCc1c2[n+](cc3c(O)c(O)ccc13)CCc1cc(O)c(O)cc1-2 [Compound No. 7, 2,3,9,10-Tetrahydroxy-13-ethylberberine]",10 to 100
3,"CCOC(=O)Cc1c2[n+](cc3c(OC)c(OC)ccc13)CCc1cc(OC)c(OC)cc1-2 [Compound No. 20, 13-Ethoxycarbonylmethylpalmatine]",≥ 100
4,"CCCCC1c2c(ccc(OC)c2OC)C=C2c3cc4c(cc3CCN21)OCO4 (stereo not drawn) [Compound No. 30, 8-n-butyldihydroberberine]",≥ 100
5,"C=CCc1c2[n+](cc3c(O)c(O)ccc13)CCc1cc(O)c(O)cc1-2 [Compound No. 10, 2,3,9,10-Tetrahydroxy-13-allylberberine]",≥ 100
6,"CCC1=C2c3cc(OC)c(OC)cc3CCN2C(CC(=O)CC(C)C)c2c1ccc(OC)c2OC (stereo not drawn) [Compound No. 40, 8-(4-methylpentan-2-one-1-yl)-13-ethyldihydropalmatine]",10 to 100
7,"CCCCCCCCc1c2[n+](cc3c(OC)c(OC)ccc13)CCc1cc(OC)c(OC)cc1-2 [Compound No. 14, 13-n-octylpalmatine]",≥ 100
8,"COc1cc2c(cc1OC)-c1c(CC3CCCCC3)c3ccc(OC)c(OC)c3c[n+]1CC2 [Compound No. 15, 13-(cyclohexylmethyl)palmatine]",≥ 100
9,"CCOc1cc2c(cc1OCC)C1=C(CC)c3ccc(OCC)c(OCC)c3C(CC(=O)C(C)C)N1CC2 (stereo not drawn) [Compound No. 45, 8-(3-methylbutan-2-one-1-yl)-13-ethyl-2,3,9,10-tetra ethoxydihydroprotoberberine]",10 to 100
10,"COc1cc2c(cc1OC)-c1c(CCC3OCCCO3)c3ccc(OC)c(OC)c3c[n+]1CC2 [Compound No. 18, 13-(1,3-dioxane-2-yl)ethylpalmatine]",≥ 100
11,"CCCCc1c2[n+](cc3c(OC)c(OC)ccc13)CCc1cc(OC)c(OC)cc1-2 [Compound No. 12, 13-n-butylpalmatine]",10 to 100
12,"COc1cc2c(cc1OC)-c1c(CC(=O)O)c3ccc(OC)c(OC)c3c[n+]1CC2 [Compound No. 21, 13-Carboxymethylpalmatine]",≥ 100
13,"CCC1=C2c3cc(OC)c(OC)cc3CCN2C(CC#N)c2c1ccc(OC)c2OC (stereo not drawn) [Compound No. 41, 8-Cyanomethyl-13-ethyldihydropalmatine]",≥ 100
14,"CCCC1c2c(ccc(OC)c2OC)C=C2c3cc4c(cc3CCN21)OCO4 (stereo not drawn) [Compound No. 29, 8-n-propyldiydroberberine]",≥ 100
15,"CCCCC1c2c(ccc(OC)c2OC)C(CC)=C2c3cc(OC)c(OC)cc3CCN21 (stereo not drawn) [Compound No. 50, 8-n-butyl-13-ethyldihydropalmatine]",≥ 100
16,COc1ccc2c(c1OC)C(C1CC1)N1CCc3cc4c(cc3C1=C2)OCO4 (stereo not drawn) [Compound No. 36],≥ 100
17,"COc1cc2c(cc1OC)-c1c(CCCI)c3ccc(OC)c(OC)c3c[n+]1CC2 [Compound No. 16, 13-Iodopropylpalmatine]",10 to 100
18,"CCC1c2c(ccc(OC)c2OC)C=C2c3cc4c(cc3CCN21)OCO4 (stereo not drawn) [Compound No. 28, 8-Ethyldihydroberberine]",≥ 100
19,"CCC1c2c(ccc(OC)c2OC)C=C2c3cc(OC)c(OC)cc3CCN21 (stereo not drawn) [Compound No. 34, 8-Ethyldihydropalmatine]",≥ 100
20,"CCc1c2[n+](cc3c(NCCO)c(OC)ccc13)CCc1cc(OC)c(OC)cc1-2 [Compound No. 25, 9-Hydroxyethylamino-13-ethylberberine]",10 to 100
21,CCCCCCCCC1c2c(ccc(OC)c2OC)C=C2c3cc4c(cc3CCN21)OCO4 (stereo not drawn) [Compound No. 35],≥ 100
22,"CCOC(=O)Cc1c2[n+](cc3c(OC)c(OC)ccc13)CCc1cc3c(cc1-2)OCO3 [Compound No. 24, 13-Ethoxycarbonylmethylberberine]",≥ 100

row,SMILES,IC50 [µM]
1,"Cc1c2[n+](cc3c(O)c(O)ccc13)CCc1cc(O)c(O)cc1-2 [Compound No. 4, 2,3,9,10-Tetrahydroxy-13-methylberberine]",10 to 100
2,"CCCc1c2[n+](cc3c(OC)c(OC)ccc13)CCc1cc(OC)c(OC)cc1-2 [Compound No. 11, 13-n-propylpalmatine]",10 to 100
3,"COc1cc2c(cc1OC)-c1c(CC3CC3)c3ccc(OC)c(OC)c3c[n+]1CC2 [Compound No. 13, 13-(cyclopropylmethyl)palmatine]",≥ 100
4,"CCC1=C2c3cc(OC)c(OC)cc3CCN2C(CC(=O)C(C)C)c2c1ccc(OC)c2OC (stereo not drawn) [Compound No. 39, 8-(3-methylbutan-2-one-1-yl)-13-ethyldihydro palmatine]",10 to 100
5,"COC(=O)C(C)c1c2[n+](cc3c(OC)c(OC)ccc13)CCc1cc3c(cc1-2)OCO3 (stereo not drawn) [Compound No. 22, 13-(1-methoxycarbonylethyl)berberine]",≥ 100
6,"C=CCc1c2[n+](cc3c(OC)c(OC)ccc13)CCc1cc3c(cc1-2)OCO3 [Compound No. 9, 13-Allylberberine]",≥ 100
7,"Oc1cc2c(cc1O)-c1cc3ccc(O)c(O)c3c[n+]1CC2 [Compound No. 3, 2,3,9,10-Tetrahydroxyberberine]",≥ 100
8,"CCOC(=O)c1c2[n+](cc3c(OC)c(OC)ccc13)CCc1cc(OC)c(OC)cc1-2 [Compound No. 19, 13-Ethoxycrbonylpalmatine]",≥ 100
9,"CCC1=C2c3cc(OC)c(OC)cc3CCN2C(C2CCCCC2=O)c2c1ccc(OC)c2OC (stereo not drawn) [Compound No. 43, 8-(cyclohexanon-2-yl)-13-ethyldihydropalmatine]",≥ 100
10,"CCC1=C2c3cc(OC)c(OC)cc3CCN2C(CC)c2c1ccc(OC)c2OC (stereo not drawn) [Compound No. 49, 8-Ethyl-13-ethyldihydropalmatine]",≥ 100
11,"COc1ccc2c(c1OC)C(C)N1CCc3cc4c(cc3C1=C2)OCO4 (stereo not drawn) [Compound No. 27, 8-Methyldihydroberberine]",≥ 100
12,"COc1ccc2c(c1OC)C(C(C)C)N1CCc3cc4c(cc3C1=C2)OCO4 (stereo not drawn) [Compound No. 32, 8-i-propyldihydroberberine]",≥ 100
13,"COc1ccc2c(c1OC)C(CC(C)=O)N1CCc3cc4c(cc3C1=C2)OCO4 (stereo not drawn) [Compound No. 26, 8-Acetonyldihydroberberine]",≥ 100
14,"CCCCOc1cc2c(cc1OCCCC)-c1cc3ccc(OCCCC)c(OCCCC)c3c[n+]1CC2 [Compound No. 17, 2,3,9,10-Tetra-n-butoxyprotoberberine]",10 to 100
15,"COc1ccc2c(c1OC)C(CC1CCCCC1)N1CCc3cc4c(cc3C1=C2)OCO4 (stereo not drawn) [Compound No. 31, 8-Cyclohexylmethyldihydroberberine]",≥ 100
16,"COc1ccc2c(C3CCOC3=O)c3[n+](cc2c1OC)CCc1cc2c(cc1-3)OCO2 (stereo not drawn) [Compound No. 23, 13-α-(γ-lactonyl)berberine]",≥ 100
17,"COc1ccc2c(C)c3[n+](cc2c1OC)CCc1cc2c(cc1-3)OCO2 [Compound No. 1, 13-Methylberberine]",10 to 100
18,"CCC1=C2c3cc(OC)c(OC)cc3CCN2C(C)c2c1ccc(OC)c2OC (stereo not drawn) [Compound No. 48, 8-Methyl-13-ethyldihydropalmatine]",≥ 100
19,"COc1ccc2c(C)c3[n+](cc2c1OC)CCc1cc(O)c(O)cc1-3 [Compound No. 2, 2,3-Dihydroxy-13-methylberberine]",10 to 100
20,"CCOc1cc2c(cc1OCC)C1=C(CC)c3ccc(OCC)c(OCC)c3C(CC(C)=O)N1CC2 (stereo not drawn) [Compound No. 44, 8-Acetonyl-13-ethyl-2,3,9,10-tetraethoxy-dihydroprotoberberine]",10 to 100
21,"COc1cc2c(cc1OC)C1=Cc3ccc(OC)c(OC)c3C(C)N1CC2 (stereo not drawn) [Compound No. 33, 8-Methyldihydropalmatine]",≥ 100
